# Earlier results as cited in article PMC12007609 (International Journal of Nanomedicine, 2025).
# Tested on: GLUT2
# Settings: GLUT2 transport
row,Km [mM],SMILES
1,~76,O=C(CO)[C@@H](O)[C@H](O)[C@H](O)CO [fructose]
2,~92,O=C[C@H](O)[C@@H](O)[C@@H](O)[C@H](O)CO [galactose]
3,~17,OC[C@H]1OC(O)[C@H](O)[C@@H](O)[C@@H]1O (stereo partly drawn) [glucose]
